molecular target: DP IV (Homo sapiens, UniProt P27487); assay: DP IV inhibition IC50, parallel-synthesis compounds tested directly following synthesis (without purification); assay type: biochemical; parameters: IC50 DP4; other: tested directly following parallel synthesis, without purification; compounds of formula (Ib) from parallel synthesis, tested directly following synthesis; details: DP IV inhibition; compounds of formula (Ib) from parallel synthesis, tested directly following synthesis (without purification); read-out: IC50
Method in brief: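 IC50 came from a 4-parameter fit of residual activity (linear 405 nm slopes for pNA release over ~18 min, relative to solvent-only wells). Gly-Pro-pNA was the substrate, cleaved by porcine kidney or recombinant human DP IV at room temperature in HEPES with 5% DMSO; duplicate 1:2 series started at 100 μM final.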

Row | IC50 [nM] | SMILES
1 | 15400 | NCc1c(-c2ccc(Cl)cc2Cl)ncn1CCc1ccc(Cl)cc1Cl [Example 32b, C-{5-(2,4-dichloro-phenyl)-3-[2-(2,4-dichloro-phenyl)-ethyl]-3H-imidazol-4-yl}-methylamine]
2 | 4600 | Cc1ccccc1Cn1cnc(-c2ccc(Cl)cc2Cl)c1CN [Example 33b, C-[5-(2,4-dichloro-phenyl)-3-(2-methyl-benzyl)-3H-imidazol-4-yl]-methylamine]
3 | 4600 | NCc1c(-c2ccc(Cl)cc2Cl)ncn1Cc1ccc(F)cc1F [Example 54b, C-[5-(2,4-dichloro-phenyl)-3-(2,4-difluoro-benzyl)-3H-imidazol-4-yl]-methylamine]

same assay, conditions: tested directly following parallel synthesis, without purification; read-out: IC50 DP4

Row | IC50 [nM] | SMILES
4 | 31600 | NCc1c(-c2ccc(F)cc2Cl)ncn1Cc1ccc(F)cc1Cl [Example 29a, C-[3-(2-Chloro-4-fluoro-benzyl)-5-(2-chlo-ro-4-fluoro-phenyl)-3H-imid-azol-4-yl]-methyl-amine]
5 | 25300 | NCc1c(-c2ccc(F)cc2Cl)ncn1Cc1ccccn1 [Example 30a, C-[5-(2-Chloro-4-fluoro-phenyl)-3-pyri-din-2-yl-methyl-3H-imid-azol-4-yl]-methyl-amine]
6 | 5500 | NCc1c(-c2ccc(F)cc2Cl)ncn1Cc1cccnc1 [Example 31a, C-[5-(2-Chloro-4-fluoro-phenyl)-3-pyri-din-3-ylmethyl-3H-imid-azol-4-yl]-methyl-amine]
7 | 100 | NCc1c(-c2ccc(Cl)cc2Cl)ncn1Cc1cccs1 [Example 32a, C-[5-(2,4-Di-chloro-phenyl)-3-thio-phen-2-yl-methyl-3H-imid-azol-4-yl]-methyl-amine]
8 | 100 | NCc1c(-c2ccc(Cl)cc2Cl)ncn1Cc1ccco1 [Example 33a, C-[5-(2,4-Dichloro-phenyl)-3-furan-2-ylmethyl-3H-imidazol-4-yl]-methylamine]
9 | 1000 | NCc1c(-c2ccc(Cl)cc2Cl)ncn1Cc1ccccc1Cl [Example 34a, C-[3-(2-Chloro-benzyl)-5-(2,4-di-chloro-phenyl)-3H-imid-azol-4-yl]-methyl-amine]
10 | 100 | NCc1c(-c2ccc(Cl)cc2Cl)ncn1Cc1ccc(F)cc1 [Example 36a, C-[5-(2,4-Dichloro-phenyl)-3-(4-fluoro-benzyl)-3H-imid-azol-4-yl]-methyl-amine]
11 | 4600 | NCc1c(-c2ccc(Cl)cc2Cl)ncn1Cc1c(F)cccc1F [Example 37a, C-[5-(2,4-Dichloro-phenyl)-3-(2,6-difluoro-benzyl)-3H-imid-azol-4-yl]-methyl-amine]
12 | 1000 | NCc1c(-c2ccc(Cl)cc2Cl)ncn1Cc1cccc(C(F)(F)F)c1 [Example 38a, C-[5-(2,4-Dichloro-phenyl)-3-(3-tri-fluoromethyl-benzyl)-3H-imid-azol-4-yl]-methyl-amine]
13 | 1000 | NCc1c(-c2ccc(Cl)cc2Cl)ncn1Cc1ccc(F)cc1F [Example 39a, C-[5-(2,4-Dichloro-phenyl)-3-(2,4-difluoro-benzyl)-3H-imid-azol-4-yl]-methyl-amine]
14 | 3700 | CCCn1cnc(-c2ccc(Cl)cc2Cl)c1CN [Example 40a, C-[5-(2,4-Dichloro-phenyl)-3-pro-pyl-3H-imid-azol-4-yl]-methyl-amine]
15 | 1000 | NCc1c(-c2ccc(Cl)cc2Cl)ncn1Cc1cccc(F)c1 [Example 42a, C-[5-(2,4-Dichloro-phenyl)-3-(3-fluoro-benzyl)-3H-imid-azol-4-yl]-methyl-amine]
16 | 30700 | NCc1c(-c2ccc(Cl)cc2Cl)ncn1Cc1cc(Br)ccc1F [Example 44a, C-[3-(5-Bromo-2-fluoro-benzyl)-5-(2,4-dichloro-phenyl)-3H-imid-azol-4-yl]-methyl-amine]
17 | 1900 | NCc1c(-c2ccc(Cl)cc2Cl)ncn1Cc1c(F)cccc1Cl [Example 45a, C-[3-(2-Chloro-6-fluoro-benzyl)-5-(2,4-dichloro-phenyl)-3H-imid-azol-4-yl]-methyl-amine]
18 | 1000 | Cc1ccccc1Cn1cnc(-c2ccc(Cl)cc2Cl)c1CN [Example 46a, C-[5-(2,4-Dichloro-phenyl)-3-(2-methyl-benzyl)-3H-imid-azol-4-yl]-methyl-amine]
19 | 100 | NCc1c(-c2ccc(Cl)cc2Cl)ncn1Cc1ccc(F)c(F)c1 [Example 49a, C-[5-(2,4-Dichloro-phenyl)-3-(3,4-difluoro-benzyl)-3H-imid-azol-4-yl]-methyl-amine]

Row | IC50 [nM] | SMILES
20 | 100 | CCOc1ccccc1Cn1cnc(-c2ccc(Cl)cc2Cl)c1CN [Example 50a, C-[5-(2,4-Dichloro-phenyl)-3-(2-ethoxy-benzyl)-3H-imid-azol-4-yl]-methyl-amine]
21 | 3700 | NCc1c(-c2ccc(Cl)cc2Cl)ncn1Cc1ccccc1C(F)(F)F [Example 51a, C-[5-(2,4-Dichloro-phenyl)-3-(2-tri-fluoromethyl-benzyl)-3H-imid-dazol-4-yl]-methyl-amine]
22 | 2800 | NCc1c(-c2ccc(Cl)cc2Cl)ncn1Cc1cccc(Cl)c1Cl [Example 52a, C-[3-(2,3-Dichloro-benzyl)-5-(2,4-dichloro-phenyl)-3H-imid-azol-4-yl]-methyl-amine]
23 | 1900 | NCc1c(-c2ccc(Cl)cc2Cl)ncn1Cc1ccc(Cl)cc1 [Example 54a, C-[3-(4-Chloro-benzyl)-5-(2,4-dichloro-phenyl)-3H-imid-azol-4-yl]-methyl-amine]
24 | 100 | NCc1c(-c2ccc(Cl)cc2Cl)ncn1Cc1ccccc1OC(F)(F)F [Example 55a, C-[5-(2,4-Dichloro-phenyl)-3-(2-tri-fluorometh-oxy-benzyl)-3H-imid-azol-4-yl]-methyl-amine]
25 | 2800 | Cc1ccc(Cn2cnc(-c3ccc(Cl)cc3Cl)c2CN)cc1 [Example 56a, C-[5-(2,4-Dichloro-phenyl)-3-(4-methyl-benzyl)-3H-imid-azol-4-yl]-methyl-amine]
26 | 9100 | NCc1c(-c2ccc(Cl)cc2Cl)ncn1Cc1ccc(Cl)cc1Cl [Example 57a, C-[3-(2,4-Dichloro-benzyl)-5-(2,4-dichloro-phenyl)-3H-imid-azol-4-yl]-methyl-amine]
27 | 1900 | NCc1c(-c2ccc(Cl)cc2Cl)ncn1Cc1ccc(Cl)c(Cl)c1 [Example 58a, C-[3-(3,4-Dichloro-benzyl)-5-(2,4-dichloro-phenyl)-3H-imid-azol-4-yl]-methyl-amine]
28 | 25300 | CCn1cnc(-c2ccc(Cl)cc2Cl)c1CN [Example 59a, C-[5-(2,4-Dichloro-phenyl)-3-eth-yl-3H-imid-azol-4-yl]-methyl-amine]
29 | 2800 | NCc1c(-c2ccc(Cl)cc2Cl)ncn1Cc1c(Cl)cccc1Cl [Example 60a, C-[3-(2,6-Dichloro-benzyl)-5-(2,4-dichloro-phenyl)-3H-imid-azol-4-yl]-methyl-amine]
30 | 1900 | NCc1c(-c2ccc(Cl)cc2Cl)ncn1Cc1cc(F)ccc1F [Example 61a, C-[5-(2,4-Dichloro-phenyl)-3-(2,5-difluoro-benzyl)-3H-imid-azol-4-yl]-methyl-amine]
31 | 1900 | NCc1c(-c2ccc(Cl)cc2Cl)ncn1Cc1ccc(F)cc1Cl [Example 63a, C-[3-(2-Chloro-4-fluoro-benzyl)-5-(2,4-di-chloro-phenyl)-3H-imid-azol-4-yl]-methyl-amine]
32 | 27100 | Cn1cccc1Cn1cnc(-c2ccc(Cl)cc2Cl)c1CN [Example 64a, C-[5-(2,4-Dichloro-phenyl)-3-(1-methyl-1H-pyrrol-2-yl-methyl)-3H-imid-azol-4-yl]-methyl-amine]
33 | 42400 | Cc1ccc(-c2ncn(Cc3ccsc3)c2CN)c(C)c1 [Example 67a, C-[5-(2,4-Dimethyl-phenyl)-3-thio-phen-3-yl-methyl-3H-imid-azol-4-yl]-methyl-amine]
34 | 37900 | Cc1ccc(-c2ncn(Cc3cc(Br)ccc3F)c2CN)c(C)c1 [Example 68a, C-[3-(5-Bro-mo-2-fluoro-benzyl)-5-(2,4-dimethyl-phenyl)-3H-imid-azol-4-yl]-methyl-amine]

Row | SMILES | IC50 [nM]
35 | COc1cccc(Cn2cnc(-c3ccc(Cl)cc3Cl)c2CN)c1 [Example 41a, C-[5-(2,4-Dichloro-phenyl)-3-(3-methoxy-benzyl)-3H-imid-azol-4-yl]-methyl-amine] | 100
36 | NCc1c(-c2ccc(Cl)cc2Cl)ncn1Cc1ccsc1 [Example 43a, C-[5-(2,4-Dichloro-phenyl)-3-thio-phen-3-yl-methyl-3H-imid-azol-4-yl]-methyl-amine] | 100
37 | NCc1c(-c2ccc(Cl)cc2Cl)ncn1Cc1ccccc1 [Example 47a, C-[3-Ben-zyl-5-(2,4-dichloro-phenyl)-3H-imid-azol-4-yl]-methyl-amine] | 100
38 | NCc1c(-c2ccc(Cl)cc2Cl)ncn1Cc1ccc2c(c1)OCO2 [Example 48a, C-[3-Ben-zo[1,3]di-oxol-5-yl-methyl-5-(2,4-dichloro-phenyl)-3H-imid-azol-4-yl]-methyl-amine] | 100
39 | CC(C)(C)Cn1cnc(-c2ccc(Cl)cc2Cl)c1CN [Example 53a, C-[5-(2,4-Dichloro-phenyl)-3-(2,2-dimethyl-propyl)-3H-imid-azol-4-yl]-methyl-amine] | 1000
40 | NCc1c(-c2ccc(Cl)cc2Cl)ncn1Cc1ccccc1F [Example 62a, C-[5-(2,4-Dichloro-phenyl)-3-(2-fluoro-benzyl)-3H-imid-azol-4-yl]-methyl-amine] | 100
41 | NCc1c(-c2ccc(Cl)cc2Cl)ncn1Cc1ccccn1 [Example 65a, C-[5-(2,4-Dichloro-phenyl)-3-pyri-din-2-yl-methyl-3H-imid-azol-4-yl]-methyl-amine] | 1900
42 | NCc1c(-c2ccc(Cl)cc2Cl)ncn1Cc1cccnc1 [Example 66a, C-[5-(2,4-Dichloro-phenyl)-3-pyri-din-3-yl-methyl-3H-imid-azol-4-yl]-methyl-amine] | 100

— US7728146B2, “Enzyme inhibitors” (Probiodrug AG, priority 2006, dated 2010)
